For assay [1], the system named is HUVEC. In words: Antiadhesive activity against human HUVEC. In kind it is functional, cell-based.
Assay [2] deals with HUVEC. In words: Uptake in human HUVEC. In kind it is functional, cell-based.
Assay [3] deals with 9L. Put plainly: Level of peptide binding to rat 9L cells indicating presence of integrin alphaVbeta3. In kind it is functional.
Assay [4] concerns BT-20. In words: Level of peptide binding to human BT20 cells indicating presence of integrin alphaVbeta3. The class given is functional.
In assay [5] the test system is BT-20. Put plainly: Uptake in human BT20 cells. The class given is functional, cell-based.
Assay [6] relates to BT-20. In words: Antiadhesive activity against human BT20 cells. The class given is functional, cell-based.

Each structure is given as a SMILES string. Positions of bridges follow the written chain, without caps; N, C: chain ends. Residues, ends and D or L forms follow the SMILES beside them. *: point of attachment. 5FAM = O=C1OC2(c3ccc(O)cc3Oc3cc(O)ccc32)c2ccc(C(=O)*)cc21

With `NCC(=O)N[C@@H](CO)C(=O)N[C@@H](CO)C(=O)N[C@@H](CCCCNC(=O)c1ccc2c(c1)C(=O)OC21c2ccc(O)cc2Oc2cc(O)ccc21)C(=O)NCC(=O)NCC(=O)NCC(=O)N[C@H]1CSSC[C@@H](C(=O)O)NC(=O)[C@H](CC(=O)O)NC(=O)CNC(=O)[C@H](CCCN=C(N)N)NC1=O` (H-GSSK(5FAM)GGGCRGDC-OH; disulfide 8-12), the IC50 – broadly, the point on the concentration scale where inhibition reaches its midpoint – was 0.76 µM in assay [1] and 130 µM in assay [6]. The EC50 (as a rule, the midpoint of the concentration-response curve) in assay [2] worked out at 6 µM; in assay [5], 1.2 µM. Also, the Activity is on record as 0.16 pmol in assay [3] and 0.82 pmol in assay [4].

The record behind these values is ChEMBL document CHEMBL1137335, “Multivalent effects of RGD peptides obtained by nanoparticle display” (J Med Chem, 2006).
